In experiment [1] the test system is H1N1 virus. The experiment in a line: Plaque reduction assay, H1N1 in MDCK cells. The experiment is classed as cell-based, influenza A/Hong Kong/415742/2009 (H1N1). Particulars: H30 in 20% PBS compared to PBS, plaque assay, Fig. S1. As for the experimental part: The antiviral activity of peptides was measured by plaque reduction assay. Briefly, peptides were dissolved in PBS or 20% PBS. Peptides (0.2-25.0 µg mL^−1) were premixed with H1N1 virus at room temperature. After 30 min of incubation, the peptide-virus mixture was transferred to MDCK cells for infection at 37°C. At 1 hpi, infectious media were removed, and then 1% low melting agar was added to cells. Cells were fixed using 4% formalin at 2–3 dpi. […] (0.1%) was added to cells for cell staining to count viral plaques.

Experiment [2] relates to rhinovirus A1. The experiment is classed as cell-based.
Experiment [3] concerns H1N1 virus. It counts as cell-based, influenza H1N1 virus.

Peptide text beside a SMILES is read from it.

For the molecule `CC[C@H](C)[C@H](NC(=O)[C@H](C)NC(=O)CN)C(=O)N[C@@H](CS)C(=O)N[C@@H](Cc1c[nH]cn1)C(=O)N1CCC[C@H]1C(=O)N[C@H](C(=O)N[C@@H](Cc1ccccc1)C(=O)N[C@@H](CS)C(=O)N1CCC[C@H]1C(=O)N[C@@H](CCCNC(=N)N)C(=O)N[C@@H](CCCNC(=N)N)C(=O)N[C@@H](Cc1ccc(O)cc1)C(=O)N[C@@H](CCCCN)C(=O)N[C@@H](CCC(N)=O)C(=O)N[C@H](C(=O)NCC(=O)N[C@H](C(=O)N[C@@H](CS)C(=O)NCC(=O)N[C@@H](CC(C)C)C(=O)N1CCC[C@H]1C(=O)NCC(=O)N[C@H](C(=O)N[C@@H](CCCCN)C(=O)N[C@@H](CS)C(=O)N[C@@H](CS)C(=O)N[C@@H](CCCCN)C(=O)N[C@@H](CCCCN)C(=O)N1CCC[C@H]1C(=O)O)[C@@H](C)O)[C@@H](C)O)[C@@H](C)CC)C(C)C` [H30] (H-GAICHPVFCPRRYKQIGTCGLPGTKCCKKP-OH; N-terminus and C-terminus assumed), the “antiviral activity against H1N1 in low salt” value in experiment [1] is on record as “could show antiviral activity in the low salt condition of 20% phosphate-buffered saline”. In addition, the “antiviral activity against rhinovirus A1 in low salt” value in experiment [2] was “could show more effective antiviral activity in low salt conditions”.
In the case of `CC(=O)N[C@H]1[C@H]([C@H](O)[C@H](O)CO)OC(C(=O)O)=C[C@@H]1N=C(N)N` [zanamivir, reference compound], the “H1N1 viral release, supernatant virus at 8 hpi” value in experiment [3] is “significantly inhibited H1N1 viral release from cells”.

Values taken from publication PMC12326976 (Antimicrobial Agents and Chemotherapy, 2025).
